Data reported in US20200378956A1, “HUMAN MICROPHYSIOLOGICAL CELL SYSTEM FOR LIVER DISEASE CONVERSTION PROV 1-18585 AND PROV 2-19154” (EMULATE, INC., priority 2018, published 2020).
Where two headings read alike, the source gives them in different places. Blank lines part the entries; values can stand above or below the compound they belong to.

What was measured:
hepatocytes = details: both the hepatocyte channel and the LSEC/Kupffer-cell channel
[1] = system: sodium/bile acid cotransporter; experiment: Bosentan effect on co-transporter gene expression; assay type: cell-based; details: after three (3) days of culture
Text: FIG. 50A-B presents exemplary data showing the effect of bosentan on co-transporter gene expression. • FIG. 50A: Sodium/bile co-transporter. • FIG. 50B: Bile Salt Export Pump (BSEP, ABCB11) co-transporter.
(§1) These microfluidic systems also enable high-resolution, real-time imaging coupled with a capability for in vitro analysis of biochemical, genetic and metabolic activities, all in the functional context of living tissue. This technology can be used to evaluate tissue development, organ physiology and/or disease etiology. In the context of drug discovery, including safety and efficacy, this technology is especially valuable for the study of molecular mechanisms of action, prioritization of lead candidates, toxicity testing and biomarker identification. Bhatia et al., “Microfluidic organs-on-chips” Nature Biotechnology 2014, 32(8):760-772. […] See, FIGS. 54A-B.

[2] = system: Human hepatocyte conventional plate cell culture; experiment: Bosentan ALT release, conventional plate cell culture; assay type: cell-based; details: various concentrations of bosentan
Text: (§2) FIG. 49A-B presents exemplary data showing the release of alanine transaminase (ALT) in response to various concentrations of bosentan. • FIG. 49A: Human hepatocyte microchip culture. • FIG. 49B: Human hepatocyte conventional plate cell culture.
as §1

[3] = system: Bile Salt Export Pump (BSEP, ABCB11); experiment: Bosentan effect on co-transporter gene expression; assay type: cell-based; details: after three (3) days of culture
[4] = system: human hepatocyte microchips; experiment: Bosentan ALT release, hepatocyte microchip culture; assay type: cell-based; details: various concentrations of bosentan
Text: as §2, §1

Liver-Chip hepatocytes = experiment: Ethanol / LPS dosing Liver-Chip study (FIG. 81-83)
Description: Oxidative stress was measured by staining of ROS-positive hepatocytes with MitoSOX™ Red (a fluorogenic dye specifically targeted to mitochondria in live cells. Oxidation of MitoSOX™ Red reagent produces red fluorescence.
Oxidation (red) is shown in the lower row stained with MitoSOX™ Red.

2D models = details: i.e., ~0.4%; cited from earlier work
[5] = system: tri-culture of hepatocytes and Kupffer cells; details: for cholesterol release: ethanol 0.04-0.16% BAC
[6] = system: co-culture hepatocyte microchip; experiment: Fructose-induced liver injury on co-culture hepatocyte microchip; assay type: cell-based
Description: The cell culture media effluent was analyzed for triglycerides, glycogen and glucose from both the top and bottom channels of the microchannel. See, Example 1. Cell imaging analysis of lipid droplet accumulation was performed with AdipoRed® and visualized with brightfield imaging.
The hepatocyte cells and endothelial cells were seeded and incubated as a co-culture in a hepatocyte microchip and samples were collected a specific time points. See, FIG. 32.
The specific media compositions were as follows: • Liver culture media: • Top Channel: DMEM (LG) 0% FBS, NEAA 1:200, ITSG 1:10,000, Vitamin C & dexamethasone
To each media, either a 1:1 glucose:fructose ratio (low fructose) or a 0.7:1.4 glucose:fructose ratio (high fructose) is added.

[7] = system: tri-culture of hepatocytes, liver sinusoidal endothelial cells (LSECs) and Kupffer cells; experiment: In vitro NASH model, high fat diet and LPS on tri-culture hepatocyte microchip; assay type: cell-based
Description: For example, a tri-culture of hepatocytes, liver sinusoidal endothelial cells (LSECs) and Kupffer cells were cultured on a hepatocyte microchip and exposed to a high fat diet comprising oleic acid. Subsequently, LPS (1 μg/ml ) was added to the high fat diet media to induce a Kupffer cell-mediated inflammatory response. […] See, FIG. 20B. When oleic acid exposure is supplemented with LPS the observance of stained lipid droplets decreases. See, FIG. 20C. […] See, FIG. 20D. […] See, FIG. 21A. […] See, FIG. 22A cf FIG. 22B. […] See, FIG. 23.

[8] = system: co-culture of hepatocytes and liver sinusoidal endothelial cells (LSECs); experiment: In vitro NAFLD model, high fat diet on co-culture hepatocyte microchip; assay type: cell-based
Description: For example, a co-culture of hepatocytes and liver sinusoidal endothelial cells (LSECs) cultured on a hepatocyte microchip were exposed to a high fat diet comprising of oleic acid ([…]) for up to two days. Accumulating fat droplets within these cultured hepatocytes were identified with AdipoRed® or NileRed® staining. […] See, FIG. 15. […] See, FIGS. 16A-C. Additionally, the number of lipid droplets were quantitated as well as the accompanying glucose level was determined. […] See, FIG. 18A. […] See, FIG. 18B. Photomicrographs of LSEC mitochondrial function correlate in a positive manner with twenty-four (24) hours of a high fat cell diet. See, FIG. 18C. Photomicrographs of hepatocyte mitochondrial function correlate in a positive manner after twenty-four (24) hours of a high fat cell diet. See, FIG. 18D. […] See, FIG. 19. […] The high fat diet exposure between 24-48 hours was also performed with and without the insulin-secretion agonist, Exendin. See, FIG. 60A. […] See, FIGS. 60B, 62C, 17A-B.

[9] = system: hepatocyte microchip co-culture system (e.g., Liver-Chip); experiment: Fatty acid-induced steatosis in WEN/CSC media (Example IV); assay type: cell-based
Description: This example was performed on a hepatocyte microchip co-culture system (e.g., Liver-Chip). As a control condition, normal cell culture media “diet” (WEN media) was flowed through the top channel of the microchip, while a CSC 10% SFB was flowed through the bottom channel of the microchip. […] The following measurements were taken: i) Lipid drop staining with Nile Red®; ii) cholesterol quantification; iii) free fatty acid quantification; and iv) glucose quantification.

hepatic stellate cells = experiment: Fibrosis development in the Liver-Chip; assay type: cell-based; details: FIG. 46B
[10] = system: quadruple co-culture of hepatocytes, Kupffer cells, LSEC cells and Stellate cells; experiment: Quadruple co-culture cell activation; assay type: cell-based; details: FIG. 13B
[11] = liver culture media, 48 hours, low or high fructose
[12] = oleic acid (0.1 to 0.5 μM) for up to two days

Compound: Nc1c2c(nc3ccccc13)CCCC2 [Tacrine, tacrine]
IL-1-α (hepatocytes): accumulation | IL-1beta (hepatocytes): accumulation | IL-6 (hepatocytes): accumulation

Compound: COc1ccccc1Oc1c(NS(=O)(=O)c2ccc(C(C)(C)C)cc2)nc(-c2ncccn2)nc1OCCO [bosentan]
sodium/bile acid cotransporter expression levels [1]: reduce sodium/bile acid cotransporter and BSEP transporter expression levels in a dose-dependent fashion | secreted alanine transaminase (ALT) levels [2]: lack of response | BSEP transporter expression levels [3]: reduce sodium/bile acid cotransporter and BSEP transporter expression levels in a dose-dependent fashion | secreted alanine transaminase (ALT) levels [4]: dose dependent increment

Compound: CCO [ethanol]
ethanol concentration at which modifications in glucose release levels were observed (Liver-Chip hepatocytes): above 0.32% | alcohol-induced steatosis (Liver-Chip hepatocytes; after ethanol-free recovery): reverted | cholesterol release (effluent) (Liver-Chip hepatocytes; ethanol at physiologically relevant BAC): increase of cholesterol release | cholesterol storage (Liver-Chip hepatocytes; ethanol dosing): increased cholesterol and glycogen storage | glycogen storage (Liver-Chip hepatocytes; ethanol dosing): increased cholesterol and glycogen storage | hepatocyte viability (albumin as viability marker) (Liver-Chip hepatocytes; ethanol dosing condition): sublethal | ethanol concentration significantly decreasing viability (2D models): greater than 100 mM | lipid droplet accumulation ([5]; 0.16% ethanol, 120 hours of recovery (Day 7)): statistically significant as compared to vehicle control | cholesterol levels ([5]; after 48 h of recovery): back to normal | cholesterol release ([5]; 24 h): increased | cholesterol release ([5]; 48 h): intensified

Compound: O=C(CO)[C@@H](O)[C@H](O)[C@H](O)CO [fructose]
extracellular glycogen levels ([6]; 24 or 72 hours): No significant differences | triglyceride levels ([6]; 24 or 72 hours, or intestinal effluent media): No significant differences | glucose in microchannel effluent ([6]; 48 h, fructose media): observed to increase | glucose in microchannel effluent ([6]; intestinal effluent culture media, with or without fructose): no difference observed | hepatocyte cell number [6, 11]: decreased hepatocyte cell number | hepatocyte cell size [6, 11]: increased hepatocyte cell size | hepatocyte viability [6, 11]: no effect on hepatocyte viability | cholesterol levels ([6]; liver media or intestinal effluent media, 24, 48 or 72 hours): failed to significantly increase cholesterol levels | extracellular glycogen levels ([6]; low or high fructose, liver media or intestinal effluent media, 48 hours): dose-dependent decrease | triglyceride levels ([6]; low or high fructose, liver media, 48 hours): dose-dependent increase

LSEC morphology ([9]; 1 μM Oleic acid): alterations in morphology | hepatocyte lipid droplet accumulation over time ([9]; 1 μM Oleic acid, 0, 40 and 64 hours): progressive accumulation | hepatocyte free fatty acids ([9]; 1 μM Oleic acid, forty hours): shown to increase
Compound: CCCCCCCC/C=C\CCCCCCCC(=O)O [oleic acid]
lipid droplet accumulation, cells proximal to channel inlet compared to channel outlet ([7]; 48 hours of high fat diet of oleic acid): higher density of lipid droplet accumulation | observable fat droplets in the hepatocytes ([7]; oleic acid only vs control): significant increase in observable fat droplets | cholesterol concentration ([8]; high fat diet): observed to increase | free fatty acids concentration ([8]; high fat diet): observed to increase | number of nuclei (hepatocyte proliferation or polyploidy) ([8]; high fat diet): increase in the number of nuclei | LSEC morphology by bright field imaging [8, 12]: developed an injury morphology | lipid droplets accumulation inside co-cultured hepatocytes [8, 12]: significant increase of lipid droplets accumulation | extracellular glucose concentration ([8]; oleic acid (0.1 to 0.5 μM), 48 hours): significantly higher | cell viability (mitochondrial function) ([8]; two day high fat diet): did not result in any significant reduction in cell viability | oxidative stress markers, reactive oxygen species (ROS) ([8]; two day high fat diet): increase in reactive oxygen species | lipid droplets in hepatocytes ([9]; high oleic acid concentration media, FIG. 7A): Increased concentration of lipid droplets | LSEC morphological features ([9]; oleic acid, 5 μM, 2 day exposure, FIG. 7B): Morphological features indicative of injury/stress exposure

Compound: TGF-α: factor printed as activating hepatic stellate cells in FIG. 46B
hepatic stellate cell activation (hepatic stellate cells): activation of hepatic stellate cells

Compound: TGF-β: growth factor used for stellate cell activation
stellate cell activation (α-SMA staining) [10]: Stellate cell activation
